pIC50, pKi: −log10 of the molar value. Where two headings read alike, the source gives them in different places.
Key:
[1] = target: rat CCR2 (Rattus norvegicus (Rat), UniProt O55193); assay: Inhibition of native agonist (rat MCP-1)-induced intracellular calcium release, calcium flux assay in CHO cells expressing rat CCR2 and Gα16; assay type: cell-based; conditions: read-out: rCCR2 Kb
From the text: (§1) CHO cells expressing human CCR2B were generated as follows. cDNA for human CCR2B (cloned from human blood) was cloned into plasmid pcDNA3.1 (from Invitrogen). The resulting plasmids were separately transfected into CHO cells expressing human Gα16 (from Molecular Devices). […] CHO cells expressing rat CCR2 were generated as follows. cDNA for rat CCR2 (cloned from rat macrophage) was cloned into plasmid pEF-flag (from Chinese Academy of Science). The resulting plasmids were transfected into CHO cells expressing human Gα16 (from […]).
(§2) Inhibition of Native Agonist-Induced Intracellular Calcium Release in Cells Expressing hCCR2B or rCCR2
(§3) Calcium flux assays were performed in CHO cells expressing human CCR2B and Gα16 coupling protein, or rat CCR2 and Gα16 coupling protein. All compounds were dissolved in DMSO and assays run at a final DMSO concentration of 0.25% (v/v). Human MCP-1 was purchased from PeproTech and used at a final assay concentration of 2 nM, while rat MCP-1 was purchased from R&D and used at a final assay concentration of 4 nM. Assays with cells expressing human CCR2B were performed with human MCP-1, while assays with cells expressing rat CCR2 were performed with rat MCP-1.
(§4) Briefly, cells were cultured overnight in a microtiter plate at 8000 per well. The next day, the resultant adherent cells were incubated in assay buffer (20 mM HEPES, pH 7.4, 0.1% bovine serum albumin, and 2.5 mM probenocid in Hank's Buffered Saline Solution) containing Calcium 4 dye (Molecular Probes) at 37° C. for 60 minutes. Calcium flux assays were performed on a FLIPR^Tetra instrument (Molecular Devices) by adding compound to the cells followed by addition of native agonist and measuring the change in fluorescence as a function of time. Maximal and minimal values for fluorescence were determined using native agonist (2 nM MCP-1) for human or rat CCR2, or buffer addition, respectively. Fluorescence values were used to calculate the percent inhibition at a given compound concentration and the data fit to a sigmoidal curve in a semi-log plot to determine IC50 values. The Kb value is calculated as Kb=IC50/(1+[agonist]/EC50), where [agonist] is the concentration of agonist used and EC50 is the agonist potency determined in the previous experiments. Mean Kb values and IC50 of the compounds assayed are reported in Table 2 and Table 3 respectively.

[2] = target: T1, human CCR2B (Homo sapiens (Human), UniProt P41597); assay: Inhibition of native agonist (human MCP-1)-induced intracellular calcium release, calcium flux assay in CHO cells expressing human CCR2B and Gα16; assay type: cell-based; conditions: for pIC50: read-out: hCCR2B IC50; for Kb: read-out: hCCR2B Kb
From the text: as §1, §2, §3, §4

[3] = target: T1, human CCR2B; assay: Inhibition of [125I]-labeled MCP-1 binding to hCCR2B (radioligand binding in CHO cells)
From the text: as §1
Inhibition of [^125I]-Labeled MCP-1 Binding to hCCR2B
Radioligand binding assays were performed in CHO cells expressing human CCR2B and Gα16 coupling protein. All compounds were dissolved in DMSO and assays run at a final DMSO concentration of 0.5% (v/v). [^125I]-labeled human MCP-1 was purchased from PerkinElmer. Unlabelled human MCP-1 was purchased from PeproTech.
Compounds were serially diluted in DMSO before diluting into assay buffer (25 mM HEPES, pH 7.4, 5 mM MgCl2, 1 mM CaCl2, 0.5% BSA) with cryo preserved CHO cells expressing human CCR2B and the Gα16 coupling protein (30×10^3/well) and [^125I]-MCP-1 (50 pM). The reaction was incubated at room temperature for 90 minutes before transferring to GF/C filter membrane (PerkinElmer) pre-treated with 0.3% polyethyleneimine for 2 hours at 4° C. The filter membrane was washed six times with ice cold wash buffer (25 mM HEPES, pH 7.4, 5 mM MgCl2, 1 mM CaCl2, 500 mM NaCl, 0.01% (m/v) azide), dried, and sealed in a RLB sample bag (Agilent Technologies) before adding 5.0 mL Microscint 20 to each bag. Membrane was counted on Microbeta counter where background binding was determined by the presence of 100 nM MCP-1 and control total binding was determined by addition of DMSO in place of the test compound. The radioactivity values (cpm) were used to calculate the percent inhibition at a given compound concentration and the data fit to a sigmoidal curve in a semi-log plot to determine IC50 values. The corresponding Ki value is calculated as follows:
Ki=IC50/(1+[radioligand]/Kd), where [radioligand] is the concentration of the label and Kd (dissociation constant) is determined in saturation experiment with different concentrations of labeled MCP-1.

[4] = mean Ki, [125I]-MCP-1 50 pM, CHO cells expressing human CCR2B and Gα16

T1 sequence (P41597 other isoform, or with tags, fused parts or gaps): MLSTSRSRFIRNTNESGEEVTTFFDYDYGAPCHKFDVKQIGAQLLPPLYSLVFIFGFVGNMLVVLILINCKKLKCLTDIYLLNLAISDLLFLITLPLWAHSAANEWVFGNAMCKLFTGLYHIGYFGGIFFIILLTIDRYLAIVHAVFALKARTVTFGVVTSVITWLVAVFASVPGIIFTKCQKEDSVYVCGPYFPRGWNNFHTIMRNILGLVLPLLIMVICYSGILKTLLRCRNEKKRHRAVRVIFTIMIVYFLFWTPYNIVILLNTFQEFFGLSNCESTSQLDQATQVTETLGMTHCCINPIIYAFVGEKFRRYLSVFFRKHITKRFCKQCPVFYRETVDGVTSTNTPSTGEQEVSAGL
rat CCR2, sequence (O55193 whole entry): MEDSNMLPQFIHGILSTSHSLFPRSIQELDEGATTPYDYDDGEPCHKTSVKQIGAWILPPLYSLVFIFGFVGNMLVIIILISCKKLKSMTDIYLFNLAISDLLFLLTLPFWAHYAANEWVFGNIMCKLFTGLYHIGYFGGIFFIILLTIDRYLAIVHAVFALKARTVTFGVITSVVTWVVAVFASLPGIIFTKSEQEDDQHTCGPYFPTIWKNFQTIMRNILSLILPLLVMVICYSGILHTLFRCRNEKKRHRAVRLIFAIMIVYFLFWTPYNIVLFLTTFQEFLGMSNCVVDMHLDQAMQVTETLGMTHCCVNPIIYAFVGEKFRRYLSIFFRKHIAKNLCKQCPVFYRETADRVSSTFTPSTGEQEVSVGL

Kb [1] [µM]	pIC50 ([2]; calcium flux, human MCP-1 2 nM)	Kb [2] [µM]	pKi [3, 4]	SMILES	pKi [3]	pIC50 [2]
0.023	7.26	0.014	7.49	CO[C@@H]1COCC[C@H]1N[C@@H]1C[C@H]2CCC[C@@]2(C(=O)N2C[C@@H]3C[C@H]2CN3c2cc(C(F)(F)F)ccn2)C1 [Example 1, 1,5-anhydro-2,3-dideoxy-4-O-methyl-3-{[(2R,3aR,6aR)-3a-({(1S,4S)-5-[4-(trifluoromethyl)pyridin-2-yl]-2,5-diazabicyclo[2.2.1]hept-2-yl}carbonyl)octahydropentalen-2-yl]amino}-D-threo-pentitol]		
0.012	7.12	0.019	7.22	CO[C@@H]1COCC[C@@H]1N[C@@H]1C[C@H]2CCC[C@@]2(C(=O)N2C[C@@H]3C[C@H]2CN3c2cc(C(F)(F)F)ccn2)C1 [Example 2, 1,5-anhydro-2,3-dideoxy-4-O-methyl-3-{[(2R,3aR,6aR)-3a-({(1S,4S)-5-[4-(trifluoromethyl)pyridin-2-yl]-2,5-diazabicyclo[2.2.1]hept-2-yl}carbonyl)octahydropentalen-2-yl]amino}-D-erythro-pentitol]		
0.01	7.18	0.016	7.52	CO[C@@H]1COCC[C@@H]1N(C)[C@@H]1C[C@H]2CCC[C@@]2(C(=O)N2C[C@@H]3C[C@H]2CN3c2cc(C(F)(F)F)ccn2)C1 [Example 7, 1,5-anhydro-2,3-dideoxy-4-O-methyl-3-{methyl[(2R,3aR,6aR)-3a-({(1S,4S)-5-[4-(trifluoromethyl)pyridin-2-yl]-2,5-diazabicyclo[2.2.1]hept-2-yl}carbonyl)octahydropentalen-2-yl]amino}-D-erythro-pentitol]		
0.006	7.12	0.019	6.68	CO[C@@H]1COCC[C@@H]1N[C@@H]1C[C@H]2CCC[C@@]2(C(=O)N2C[C@@H]3C[C@H]2CN3c2cccc(C(F)(F)F)c2)C1 [Example 18, 1,5-anhydro-2,3-dideoxy-4-O-methyl-3-{[(2R,3aR,6aR)-3a-({(1S,4S)-5-[3-(trifluoromethyl)phenyl]-2,5-diazabicyclo[2.2.1]hept-2-yl}carbonyl)octahydropentalen-2-yl]amino}-D-erythro-pentitol]		
0.012	6.63	0.057	6.51	CO[C@@H]1COCC[C@@H]1N[C@@H]1C[C@H]2CCC[C@@]2(C(=O)N2C[C@@H]3C[C@H]2CN3c2ccc(C)c(C(F)(F)F)c2)C1 [Example 19, 1,5-anhydro-2,3-dideoxy-4-O-methyl-3-{[(2R,3aR,6aR)-3a-({(1S,4S)-5-[4-methyl-3-(trifluoromethyl)phenyl]-2,5-diazabicyclo[2.2.1]hept-2-yl}carbonyl)octahydropentalen-2-yl]amino}-D-erythro-pentitol]		
0.018	6.74	0.045	6.95	CO[C@@H]1COCC[C@@H]1N[C@@H]1C[C@H]2CCC[C@@]2(C(=O)N2C[C@@H]3C[C@H]2CN3c2ccc(F)c(Cl)c2)C1 [Example 20, 1,5-anhydro-3-{[(2R,3aR,6aR)-3a-{[(1S,4S)-5-(3-chloro-4-fluorophenyl)-2,5-diazabicyclo[2.2.1]hept-2-yl]carbonyl}octahydropentalen-2-yl]amino}-2,3-dideoxy-4-O-methyl-D-erythro-pentitol]		
0.012	6.82	0.038	6.92	CO[C@@H]1COCC[C@@H]1N[C@@H]1C[C@H]2CCC[C@@]2(C(=O)N2C[C@@H]3C[C@H]2CN3c2cccc(C(F)(F)F)n2)C1 [Example 22, 1,5-anhydro-2,3-dideoxy-4-O-methyl-3-{[(2R,3aR,6aR)-3a-({(1S,4S)-5-[6-(trifluoromethyl)pyridin-2-yl]-2,5-diazabicyclo[2.2.1]hept-2-yl}carbonyl)octahydropentalen-2-yl]amino}-D-erythro-pentitol]		
0.005	7.04	0.023	6.57	CO[C@@H]1COCC[C@@H]1N[C@@H]1C[C@H]2CCC[C@@]2(C(=O)N2C[C@@H]3C[C@H]2CN3c2cc(F)cc(C(F)(F)F)c2)C1 [Example 25, 1,5-anhydro-2,3-dideoxy-3-{[(2R,3aR,6aR)-3a-({(1S,4S)-5-[3-fluoro-5-(trifluoromethyl)phenyl]-2,5-diazabicyclo[2.2.1]hept-2-yl}carbonyl)octahydropentalen-2-yl]amino}-4-O-methyl-D-erythro-pentitol]		
0.022	6.22	0.147	6.10	CO[C@@H]1COCC[C@@H]1N[C@@H]1C[C@H]2CCC[C@@]2(C(=O)N2C[C@@H]3C[C@H]2CN3c2ccnc(C(F)(F)F)c2)C1 [Example 26, 1,5-anhydro-2,3-dideoxy-4-O-methyl-3-{[(2R,3aR,6aR)-3a-({(1S,4S)-5-[2-(trifluoromethyl)pyridin-4-yl]-2,5-diazabicyclo[2.2.1]hept-2-yl}carbonyl)octahydropentalen-2-yl]amino}-D-erythro-pentitol]		
0.019	6.41	0.096	6.35	CO[C@@H]1COCC[C@@H]1N[C@@H]1C[C@H]2CCC[C@@]2(C(=O)N2C[C@@H]3C[C@H]2CN3c2ccnc(C(F)(F)F)n2)C1 [Example 27, 1,5-anhydro-2,3-dideoxy-4-O-methyl-3-{[(2R,3aR,6aR)-3a-({(1S,4S)-5-[2-(trifluoromethyl)pyrimidin-4-yl]-2,5-diazabicyclo[2.2.1]hept-2-yl}carbonyl)octahydropentalen-2-yl]amino}-D-erythro-pentitol]		

SMILES	Kb [1] [µM]	pIC50 ([2]; calcium flux, human MCP-1 2 nM)	Kb [2] [µM]	pKi [3, 4]	pKi [3]	pIC50 [2]
CO[C@@H]1COCC[C@@H]1N[C@@H]1C[C@H]2CCC[C@@]2(C(=O)N2C[C@@H]3C[C@H]2CN3c2ccc(C#N)c(C(F)(F)F)c2)C1 (racemic) [Example 39, 1,5-anhydro-3-{[(2R,3aR,6aR)-3a-({(1S,4S)-5-[4-cyano-3-(trifluoromethyl)phenyl]-2,5-diazabicyclo[2.2.1]hept-2-yl}carbonyl)octahydropentalen-2-yl]amino}-2,3-dideoxy-4-O-methyl-D-erythro-pentitol]	0.003	7.26	0.014		7.18	
CO[C@@H]1COCC[C@@H]1N[C@@H]1C[C@H]2CCC[C@@]2(C(=O)N2C[C@@H]3C[C@H]2CN3c2ccc(F)c(C(F)(F)F)c2)C1 [Example 15, 1,5-anhydro-2,3-dideoxy-3-{[(2R,3aR,6aR)-3a-({(1S,4S)-5-[4-fluoro-3-(trifluoromethyl)phenyl]-2,5-diazabicyclo[2.2.1]hept-2-yl}carbonyl)octahydropentalen-2-yl]amino}-4-O-methyl-D-erythro-pentitol]	0.003		0.009	7.54		7.46
CO[C@@H]1COCC[C@@H]1N[C@@H]1C[C@H]2CCC[C@@]2(C(=O)N2C[C@@H]3C[C@H]2CN3c2cc(C(F)(F)F)ccc2C)C1 [Example 16, 1,5-anhydro-2,3-dideoxy-4-O-methyl-3-{[(2R,3aR,6aR)-3a-({(1S,4S)-5-[2-methyl-5-(trifluoromethyl)phenyl]-2,5-diazabicyclo[2.2.1]hept-2-yl}carbonyl)octahydropentalen-2-yl]amino}-D-erythro-pentitol]	0.007		0.026	6.70		6.97

Source: patent publication US8906911B2, “Chemokine receptor antagonists” (AbbVie Inc., priority 2012, dated 2014)
